Target: T1, human Nox4 (Homo sapiens, UniProt Q9NPH5)
T1 construct: expressed in transfected cells; host or cells: T-REx-293 (hNOX4 T-REx-293), tetracycline-induced; membrane fraction
T1 sequence (Q9NPH5 1-578): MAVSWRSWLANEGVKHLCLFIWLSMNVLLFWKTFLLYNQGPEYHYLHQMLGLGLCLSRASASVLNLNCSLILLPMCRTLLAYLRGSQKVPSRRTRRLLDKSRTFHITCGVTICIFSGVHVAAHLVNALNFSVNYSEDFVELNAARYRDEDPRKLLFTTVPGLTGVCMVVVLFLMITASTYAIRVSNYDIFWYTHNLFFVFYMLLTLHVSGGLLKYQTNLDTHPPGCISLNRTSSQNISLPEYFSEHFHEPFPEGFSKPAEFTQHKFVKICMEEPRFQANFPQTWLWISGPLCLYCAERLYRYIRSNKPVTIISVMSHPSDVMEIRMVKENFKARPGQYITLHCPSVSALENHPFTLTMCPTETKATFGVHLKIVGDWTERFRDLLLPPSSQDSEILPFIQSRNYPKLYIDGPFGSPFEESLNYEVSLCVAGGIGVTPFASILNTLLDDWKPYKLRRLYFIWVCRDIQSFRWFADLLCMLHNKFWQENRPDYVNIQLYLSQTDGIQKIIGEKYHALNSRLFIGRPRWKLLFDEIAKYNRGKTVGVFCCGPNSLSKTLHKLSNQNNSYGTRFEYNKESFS
T1 sequence (P13498 2-195 partner limits assumed): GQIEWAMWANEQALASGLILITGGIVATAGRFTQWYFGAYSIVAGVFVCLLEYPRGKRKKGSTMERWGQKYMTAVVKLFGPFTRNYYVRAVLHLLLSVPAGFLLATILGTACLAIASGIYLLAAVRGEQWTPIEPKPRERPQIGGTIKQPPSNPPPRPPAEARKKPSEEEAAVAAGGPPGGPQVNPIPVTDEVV
Assay: ROS production by membranes expressing human Nox4, cell-free Amplex Red assay
Format: biochemical
Conditions: cell-free membranes, Amplex Red; Cheng-Prusoff; average of at least three experiments in triplicate; read-out: Ki hNox4
How it was run: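 Membranes from tetracycline-induced (1 μg/ml, 24 h) T-REx cells overexpressing human Nox4, incubated in PBS with Amplex Red, HRP and co-factors; NADPH starts ROS production. Compounds 1 nM-100 μM, 20 min at 37° C.; fluorescence (ex 544/em 590 nm) over 10 min; Ki via Cheng-Prusoff, ≥3 experiments in triplicate.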

- Ki: 75 nM
Compound: COc1ccc(-c2c3c(=O)n(-c4ccccc4OC)[nH]c3cc(=O)n2Cc2cccnc2)c(F)c1 [Compound (1), 4-(2-fluoro-4-methoxyphenyl)-2-(2-methoxyphenyl)-5-(pyridin-3-ylmethyl)-1H-pyrazolo[4,3-c]pyridine-3,6(2H,5H)-dione]

— patent US20140323500A1, “NADPH OXIDASE 4 INHIBITORS AND USE THEREOF” (GENKYOTEX SA, priority 2011, published 2014)
